Source: publication PMC7041945, “Misfolded proteins bind and activate death receptor 5 to trigger apoptosis during unresolved endoplasmic reticulum stress” (eLife, 2020)
Residues, ends and D or L forms follow the SMILES beside them. *: point of attachment. Cbz = O=C(OCc1ccccc1)*; CH2F = FC*

Experiments:
[1] = system: HCT116 cells; test: Annexin V (and SytoxBlue) flow cytometry for apoptosis; format: cell-based, Homo sapiens
Description: Cells seeded in a 6-well plate were transfected with the specified plasmid for 24 hr and harvested via trypsinization in complete media to allow a 30 min recovery at 37°C. The samples were then centrifuged at 500xg for 5 min and resuspended In 150 μl of a 1:20 dilution of Annexin V-AlexaFluor 647 conjugate (Thermo Scientific #A23204). Samples were transferred to a 96-well U-bottom plate and incubated in the dark for 15 min at RT. The distribution of apoptotic cells was determined by flow cytometry on a BD LSR II.

[2] = system: DR5 / ERGIC53 / giantin in HCT116 cells; test: Immunofluorescence co-localization (Pearson's correlation per cell); format: cell-based, Homo sapiens
Description: HCT116 were seeded at 25000 cells per well in an 8-well glass-bottom μSlide (Ibidi 80827) pre-coated with Collagen IV (Sigma-Aldrich C6745, 0.03 mg/ml in PBS incubated for 30 min at RT, and then rinsed off with PBS x 3) in growth media 18 hr prior to transfection (see above for protocol). 24 hr post-transfection, the cells were fixed using 4% paraformaldehyde (PFA, Electron Microscopy Sciences) or methanol, depending on the antibody combination used for immunostaining (see table below). Samples were protected from light after fixation to preserve GFP fluorescence.
For fixation with 4% PFA, 32% PFA was added directly to the well in growth media for a 1:8 dilution and incubated for 10–15 min at RT. Cells were then permeabilized with PHEM buffer (60 mM PIPES, 25 mM HEPES, 10 mM EGTA, 2 mM MgCl2-hexahydrate, pH 6.9) containing 0.1% Triton-X100 for 10 min at RT for three washes.
For fixation with methanol, media was removed and cells were washed with cold PBS. Then methanol (pre-cooled at −20°C) was added to the well and incubated at −20°C for 3–4 min. The methanol was promptly aspirated and replaced with PHEM buffer (without Triton X-100), followed by two more 10 min washes with PHEM at RT.
To block against non-specific antibody interactions, cells were rinsed in PHEM (without 0.1% Triton X-100) and then incubated with PHEM containing 2% normal goat serum (Jackson Immunoresearch Laboratories, 005-000-121) for 1 hr at RT. Primary antibodies were incubated in blocking solution overnight at 4°C at the dilution noted in the table above. Cells were then washed with PHEM buffer for 10 min at RT x three and incubated with secondary antibodies, anti-mouse-AlexaFluor546 (Invitrogen A11030) and anti-rabbit-AlexaFluor633 (Invitrogen A21071), diluted 1:1000 in PHEM with 2% normal goat serum. (Secondary antibody solutions were centrifuged at 15000xg for 20 mins at 4°C to remove aggregates prior to incubating with cell samples.) After a 1 hr incubation at RT, cells were washed with PHEM buffer once, then incubated with PHEM buffer containing nuclear stain (DAPI, Molecular Probes, Eugene, OR, D-1306, 5 μg/mL), and finally rinsed with PHEM buffer twice before imaging.
Samples were imaged on a spinning disk confocal with Yokogawa CSUX A1 scan head, Andor iXon EMCCD camera, and 40x Plan Apo air Objective NA 0.95 or 100x ApoTIRF objective NA 1.49 (Nikon).
From the 405 nm channel, cell nuclei were identified as primary objects using maximum correlation thresholding (MCT) and shape to distinguish clumped objects. Secondary objects were outlined using propagation from the nuclei (DAPI) after applying MCT from the 488 nm, 561 nm, and 633 nm channels. Tertiary objects for each cell was identified as the mask of each nucleus subtracted from the mask of its corresponding secondary object in each channel, yielding masks for intracellular GFP-tagged protein from the 488 nm channel, for intracellular DR5 from the 561 nm channel, and for the organelle marker in the 633 nm channel. For overlap between DR5 and MPZ/RHO-GFP, Pearson’s correlation coefficients were calculated within the MPZ/RHO mask for each cell to filter out untransfected cells. For overlap between DR5/MPZ and organelle markers, Pearson’s correlation coefficients were calculated within tertiary objects for the organelle marker in GFP+ cells. Statistical analyses for all data sets were performed using GraphPad Prism 6.0.

[3] = system: DR5 ECD; test: Peptide array binding of Fc-tagged DR5 ectodomain (MPZ and RHO sequences; amino acid enrichment); set-up: species or system human; conditions: rhodopsin EL1-EL3 peptide array; for Corrected rawintden - min: min subtracted; for normalized (binding intensity): normalized from corrected rawintden - min
Description: Peptide arrays were purchased from the MIT Biopolymers Laboratory as described previously in [Karagöz et al. (2017)] and [Gardner and Walter (2011)]. The sequences of each protein were tiled from N- to C-terminus in 18-amino-acid-long peptides shifting by three amino acids from the previous spot. The arrays were incubated in methanol for 10 min, and then washed in binding buffer (50 mM HEPES pH 7.2, 250 mM NaCl, 10% glycerol) for 10 min at room temperature x 3. 500 nM of Fc-tagged DR5 extracellular domain (ECD, a kind gift from Scot Marsters) was incubated with the array in binding buffer at room temperature for 1 hr. Then, the array was washed three times for 10 min with binding buffer to remove unbound protein. The bound DR5 ECD was then transferred onto a nitrocellulose membrane via a semi-dry transfer apparatus (Owl HEP-1) at 80 mA for 45 min at 4°C. The membrane was then blocked with 1xPBST with 5% milk for 1 hr at room temperature and probed with 1:1000 anti-Fc (One World Lab #603–510) overnight at 4°C followed by 1:10000 anti-mouse IgG-HRP (Promega #W4021) for 1 hr at RT. The membrane was imaged using chemi-luminescence with the Bio-Rad Universal Hood II Gel Doc below saturating pixel intensities. The signal of each spot was quantified using Max Quant and normalized to the maximum intensity of all the spots on the same array.

[4] = system: caspase 8 in HCT116 lysates; test: Caspase 8 activity (caspase glo 8) of cell lysates / IP inputs; format: cell-based, Homo sapiens; conditions: for average fold change relative to empty: HCT116, rep 1, average of 4 dilutions; for norm RLUs: rep 2, normalized by lysate quant
Description: Cells harvested from a 6-well plate were resuspended in 100 μl of lysis buffer (30 mM HEPES pH 7.2, 150 mM NaCl, 1% Triton X-100) and lysed via needle shearing (25G, 10 passes) followed by a 30 min incubation on ice. Supernatant was collected after centrifuging at 1000xg for 5 min. For the caspase activity assay, 10 μl of supernatant diluted with lysis buffer (1:25, 1:50, 1:100 to stay within linear range of luminescence measurements) was incubated with 10 μl of the luminogenic caspase glo 8 substrate (Promega #PRG8200) in a 384-white walled plate (Corning 3574) for 45 min at RT before measuring luminescence on a Spectramax-M5 plate reader.

[5] = HCT116, 24 hr post-transfection, Mean ± SEM

Compound | Corrected rawintden - min [3] | normalized (binding intensity) [3] | further results
CC(NC(=O)C(NC(=O)OCc1ccccc1)C(C)C)C(=O)NC(CC(=O)O)C(=O)CF (stereo not drawn) [zVAD, reference compound] (Cbz-Val-Ala-Asp-CH2F; configuration not given here) |  |  | annexin V staining with pan-caspase inhibitor ([1]; cells expressing MPZ-ecto peptide): diminished the extent of annexin V staining
DR5 siRNA: siRNA oligonucleotides against DR5 (Dharmacon L-004448-00-0005) (guide AAGACCCUUGUGCUCGUUGUCUU; further chemistry not given here) [reference compound] |  |  | DR5 immunofluorescence signal ([2]; siRNA 48 hr, MPZ-GFP 24 hr): eliminated the DR5 signal; PARP cleavage and annexin V staining after DR5 knockdown ([1]; DR5 siRNA 48 hr, then MPZ-GFP overexpression 24 hr): significantly reduced PARP cleavage and annexin V staining
EQPQYYLAEPWQLHGYFV | 507200 | 0.1237 | 
ESTHQGSNFMNGTEGPNF | 320074 | 0.07803 | 
ETEREQPEGGRDAISIEHEA [MPZ-ecto peptide^Arom→Glu-eGFP, expressed GFP-tagged construct with all aromatic residues of the MPZ-ecto peptide mutated to Glu] |  |  | Pearson's correlation per cell of GFP-tagged peptide with DR5 [2, 5]: 0.27 ± 0.03; Pearson's correlation per cell of GFP-tagged peptide with ERGIC [2, 5]: 0.25 ± 0.03; Pearson's correlation per cell between DR5 and ERGIC ([2]; HCT116 expressing GFP-tagged peptide, 24 hr, Mean ± SEM): 0.50 ± 0.03; Annexin V +, Sytox Blue + cells ([1]; transfected 24 hr, no z-VAD): 8.17% of cells; Annexin V +, Sytox Blue - cells ([1]; transfected 24 hr, no z-VAD): 4.89% of cells; Annexin V -, Sytox Blue - cells ([1]; transfected 24 hr, no z-VAD): 86.5% of cells
FGPTGCNLERYIPEGMQC | 1562181 | 0.3809 | 
FSNVTGVVRSPFEQPQYY | 470277 | 0.1147 | 
HQGSNFMNGTEGPNFYVP | 360135 | 0.0878 | 
IDYYTLKPEVNNESTHQG | 1420533 | 0.3463 | 
INS1 |  |  | average fold change relative to empty ([4]; siDR5): 1.524 fold change; average fold change relative to empty ([4]; siNT): 2.0013 fold change
KPEVNNESTHQGSNFMNG | 941789 | 0.2296 | 
LAEPWQLHGYFVFGPTGC | 890759 | 0.2172 | 
LHGYFVFGPTGCNLERYI | 1142815 | 0.2786 | 
MNGTEGPNFYVPFSNVTG | 827091 | 0.2016 | 
MQCSCGIDYYTLKPEVNN | 1701232 | 0.4148 | 
NLERYIPEGMQCSCGIDY | 395368 | 0.09639 | 
PEGMQCSCGIDYYTLKPE | 1657676 | 0.4041 | 

Compound | Corrected rawintden - min [3] | normalized (binding intensity) [3] | further results
PNFYVPFSNVTGVVRSPF | 624655 | 0.1523 | 
PWQLHGYFVFGPTGCNLE | 1093768 | 0.2667 | 
QYYLAEPWQLHGYFVFGP | 996384 | 0.2429 | 
RYIPEGMQCSCGIDYYTL | 1340468 | 0.3268 | 
SCGIDYYTLKPEVNNEST | 1488599 | 0.3629 | 
SNFMNGTEGPNFYVPFSN | 337810 | 0.08236 | 
SPFEQPQYYLAEPWQLHG | 517083 | 0.1261 | 
TEGPNFYVPFSNVTGVVR | 1182345 | 0.2883 | 
TGCNLERYIPEGMQCSCG | 1149984 | 0.2804 | 
VNNESTHQGSNFMNGTEG | 294091 | 0.0717 | 
VTGVVRSPFEQPQYYLAE | 402567 | 0.09815 | 
VVRSPFEQPQYYLAEPWQ | 375649 | 0.09158 | 
YFVFGPTGCNLERYIPEG | 490636 | 0.1196 | 
YTLKPEVNNESTHQGSNF | 870062 | 0.2121 | 
YVPFSNVTGVVRSPFEQP | 640840 | 0.1562 | 
insGFP |  |  | norm RLUs ([4]; dilution 0.025): 1827.1 RLUs; norm RLUs ([4]; dilution 0.05): 3654.19 RLUs; norm RLUs ([4]; dilution 0.1): 8264.86 RLUs
